Laboratory results: patent US7312237B2, “Combination of epothilone analogs and chemotherapeutic agents for the treatment of prolilferative diseases” (Bristol-Myers Squibb Co., priority 2001, dated 2007)
Where “and” joins values, the source holds several entries; their conditions need not be identical. Equal values may be shown once. Entries after “also recorded” stand apart in the source; their conditions may differ.

Key:
[1] = system: panel of tumor cell lines; test: Oncology Diverse Cell Assay, panel of 21 cell lines; format: cell-based; conditions: 18 of the 21 cell lines tested
Protocol: Bar graphs, on the right, depict the IC50 values of the cell lines listed on the left hand column (top to bottom).
The in vitro cytotoxicity was assessed in tumor cells by a tetrazolium-based colorimetric assay which takes advantage of the metabolic conversion of MTS (3-(4,5-dimethylthiazol-2-yl)-5-(3-carboxymethoxyphenyl)-2-(4-sulphenyl)-2H-tetrazolium, inner salt) to a reduced form that absorbs light at 492 nm. Cells were seeded 24 hr prior to drug addition. Following a 72 hour incubation at 37° C. with serially diluted compound, MTS, in combination with the electron coupling agent phenazine methosulfate, was added to the cells. The incubation was continued for 3 hours, then the absorbancy of the medium at 492 nm was measured with a spectrophotometer to obtain the number of surviving cells relative to control populations. The results are expressed as median cytotoxic concentrations (IC50 values).

HCT116 cells = test: Mitotic blockade (cell cycle progression); format: cell-based, human; conditions: 7.5 nM, 8 hours
[2] = In vivo antitumor testing, Pat-7 in nude mice; conditions: nude, mouse, in vivo
Protocol: (§1) All tumor implants for efficacy testing were subcutaneous (sc).
(§2) The MTD was frequently equivalent to OD. When death occurs, the day of death was recorded.
(§3) And, Log cell kill=T−C÷(3.32×TVDT)
(§4) This tumor model was established from a tumor biopsy of an ovarian cancer patient (Pat-7), who was initially responsive to TAXOL® treatment but ultimately developed resistance to it following nine courses of monotherapy with TAXOL®. Prior to treatment with TAXOL®, Pat-7 also received numerous other chemotherapeutic agents including carboplatin, cytoxan, VP-16, ifosfamide and altretamine. Tumor biopsy was taken following development of TAXOL® resistance.

[3] = system: Pat-7 human ovarian carcinoma; test: In vivo antitumor testing, Pat-7 in nude mice
Protocol: as §1, §2, §3, §4

[4] = system: A2780Tax human ovarian carcinoma; conditions: Expt. 12, IV q2dx5, OD 6.3 mg/kg
Source text: The following human tumors were used: A2780 ovarian, A2780Tax ovarian (established from cells obtained from Dr. Antonio Fojo, Medicine Branch, NCI, Bethesda, Md.), HCT116/VM46 colon, Pat-7 ovarian (established from a tumor biopsy provided by Dr. Thomas Hamilton, Fox Chase Cancer Center, Philadelphia, Pa.) from a patient who had developed resistance to TAXOL®). The murine fibrosarcoma M5076 was also employed.
The following tumors were passaged in the indicated host strain of mouse: murine M5076 fibrosarcoma (M5076) in C57Bl/6 mice; human A2780 and Pat-7 ovarian carcinomas, HCT116, HCT116/VM46 and LS174T colon carcinoma, Pat-21 breast carcinoma in nude mice. Tumor passage occurred biweekly for murine tumors and approximately every two to eight weeks for the various human tumor lines. With regard to efficacy testing, M5076 tumors were implanted in (C57Bl/6×DBA/2)F1 hybrid mice, and human tumors were implanted in nude mice. All tumor implants for efficacy testing were subcutaneous (sc). […]
(§5) Antitumor activity was evaluated at the maximum tolerated dose (MTD) which is defined as the dose level immediately […] which excessive toxicity (i.e. more than one death) occurred. […] When death occurs, the day of death was recorded. […]
(§6) To estimate tumor cell kill, the tumor volume doubling time was first calculated with the formula: […]

Pat-21 breast carcinoma = conditions: Expt. R667, IV q4dx3; 41, 68, OD 10 mg/kg; interim analysis, study in progress
Source text: The following tumors were passaged in the indicated host strain of mouse: murine M5076 fibrosarcoma (M5076) in C57Bl/6 mice; human A2780 and Pat-7 ovarian carcinomas, HCT116, HCT116/VM46 and LS174T colon carcinoma, Pat-21 breast carcinoma in nude mice. Tumor passage occurred biweekly for murine tumors and approximately every two to eight weeks for the various human tumor lines. With regard to efficacy testing, M5076 tumors were implanted in (C57Bl/6×DBA/2)F1 hybrid mice, and human tumors were implanted in nude mice. All tumor implants for efficacy testing were subcutaneous (sc).
The required number of animals needed to detect a meaningful response were pooled at the start of the experiment and each was given a subcutaneous implant of a tumor fragment (·50 mg) with a 13-gauge trocar. For treatment of early-stage tumors, the animals were again pooled before distribution to the various treatment and control groups. For treatment of animals with advanced-stage disease, tumors were allowed to grow to the predetermined size window (tumors outside the range were excluded) and animals were evenly distributed to various treatment and control groups. Treatment of each animal was based on individual body weight. Treated animals were checked daily for treatment related toxicity/mortality. Each group of animals was weighed before the initiation of treatment (Wt1) and then again following the last treatment dose (Wt2). The difference in body weight (Wt2−Wt1) provides a measure of treatment-related toxicity.
Tumor weights (mg) were estimated from the formula: Tumor weight=(length×width^2)÷2
as §5, §6

[5] = In vivo antitumor testing, M5076 murine sarcoma; set-up: species or system mice; conditions: (C57Bl/6×DBA/2)F1 hybrid, mouse, in vivo, iv, Compound 1 IV, read-out: OD (optimal dose or MTD)
Protocol: (§7) The murine fibrosarcoma M5076 was also employed.
(§8) The human tumors were maintained in Balb/c nu/nu nude mice. M5076 was maintained in C57BL/6 mice. Tumors were propagated as subcutaneous transplants in the appropriate mouse strain using tumor fragments obtained from donor mice.
as §1, §2, §3

[6] = system: M5076 murine fibrosarcoma; test: In vivo antitumor testing, M5076 murine sarcoma; set-up: species or system mice
Protocol: as §7, §8, §1, §2, §3

[7] = In vivo antitumor testing, HCT116 xenograft; set-up: species or system nude mice; conditions: nude, mouse, in vivo, read-out: OD (optimal dose or MTD)
Protocol: as §1, §2, §3

[8] = system: HCT116 human colon carcinoma; test: In vivo antitumor testing, HCT116 xenograft; set-up: species or system nude mice
Protocol: as §1, §2, §3

[9] = Stability as a function of pH; format: physicochemical; conditions: neutral pH versus low pH
[10] = human, in vivo
[11] = Expt. 52, IV q2dx5, OD 6.3 mg/kg
[12] = Expt. 52, IV q4dx3, OD 10 mg/kg
[13] = Expt. 52, IV q8dx2, OD 24 mg/kg
[14] = Expt. 52, PO q2dx5, OD 90 mg/kg

For C/C(=C\c1csc(C)n1)[C@@H]1C[C@@H]2O[C@]2(C)CCC[C@H](C)[C@H](O)[C@@H](C)C(=O)C(C)(C)[C@@H](O)CC(=O)N1 (relative stereo) [Compound 1, [1S-[1R*,3R*(E),7R*,10S*,11R*,12R*,16S*]]-7,11-dihydroxy-8,8,10,12,16-pentamethyl-3-[1-methyl-2-(2-methyl-4-thiazolyl)ethenyl]-4-aza-17-oxabicyclo[14.1.0] heptadecane-5,9-dione], the IC50 [1] was 1.4 to 6 nM, the “block of cells in mitosis” value (HCT116 cells) was “almost completely blocks cells in mitosis” and the MTD ([2]; iv, Compound 1 IV, q2dx5, read-out: OD (optimal dose or maximum tolerated dose, MTD)) was 4.8 mg/kg. The MTD ([2]; iv, Compound 1 IV, q4dx3, read-out: OD (optimal dose or MTD)) was 15 mg/kg, the MTD ([2]; po, Compound 1 PO, q2dx5, read-out: OD (optimal dose or MTD)) was 60 mg/kg and the “OD (optimal dose or maximum tolerated dose, MTD)” value ([3]; Compound 1 IV, q2dx5) was 6.3 mg/kg. The “OD (optimal dose or MTD)” value ([3]; Compound 1 PO, q2dx5) was 80 mg/kg, the “LCK (gross log cell kill)” value ([3]; Expt. 8, IV q2dx5, OD 6.3 mg/kg) was 4.5 and the “LCK (gross log cell kill)” value ([3]; Expt. 8, PO q2dx5, OD 60 mg/kg) was 3.1. For the same molecule, the “LCK (gross log cell kill)” value ([3]; Expt. 9, PO q2dx5, OD 80 mg/kg) was 2.5, the “LCK (gross log cell kill)” value ([3]; Expt. 12, IV q2dx5, OD 6.3 mg/kg) was 2.1 and the “LCK (gross log cell kill)” value ([3]; Expt. 12, IV q4dx3, OD 15 mg/kg) was 1.7. The “LCK (gross log cell kill)” value ([3]; Expt. R403, IV q2dx5, OD 4.8 mg/kg) was 2.1, the “LCK (gross log cell kill)” value [4] was 2.5 and the “LCK (gross log cell kill)” value (Pat-21 breast carcinoma) was >1.5^5. The MTD ([5]; q2dx5) was 8.4 mg/kg, the MTD ([5]; q4dx3) was 24 mg/kg and the “LCK (gross log cell kill)” value ([6]; Expt. 159, IV q2dx5, OD 8.4 mg/kg) was 0.5. For the same molecule, the “LCK (gross log cell kill)” value ([6]; Expt. 162, IV q2dx5, OD 8.4 mg/kg) was 0.7, the “LCK (gross log cell kill)” value ([6]; Expt. 172, IV q4dx3, OD 24 mg/kg) was 1.0 and the MTD ([7]; iv, Compound 1 IV, q2dx5) was 6.3 mg/kg. The MTD ([7]; iv, Compound 1 IV, q4dx3) was 10 mg/kg, the MTD ([7]; iv, Compound 1 IV, q8dx2) was 24 mg/kg and the MTD ([7]; po, Compound 1 PO, q2dx5) was 90 mg/kg. The “LCK (gross log cell kill)” value [8, 11] was > 6.3, the cures/total [8, 11] was 4 of 8 and 4/8 and the “LCK (gross log cell kill)” value [8, 12] was > 6.3. The cures/total [8, 12] was 5 of 8 and 5/8, the “LCK (gross log cell kill)” value [8, 13] was > 6.3 and the cures/total [8, 13] was 8 of 8 and 8/8. For the same molecule, the “LCK (gross log cell kill)” value [8, 14] was >6.3, the cures/total [8, 14] was “seven of eight; also recorded: (7/8)” and the “stability versus pH” value [9] was “significantly more stable at neutral pH than at low pH”. For the same molecule, the “dose recommended for Phase II clinical trials” value [10] was 50 mg/m2.
